Read-outs that look alike come from different tables or passages of the source. Bridge positions count the residues as written; N and C are the ends. Peptide text beside a SMILES is read from it.

We go through one compound from patent US11780893B2, “Kv1.3 blockers” (Zealand Pharma A/S, priority 2019, dated 2023).

The target in one series is T1, Kv1.1 (Homo sapiens, UniProt Q09470).
T1 construct: expressed in transfected cells; host or cells: Chinese Hamster Ovary (CHO)
In words: cell-based.

The next series addresses T2, Kv1.2 (Homo sapiens, UniProt P16389).
T2 construct: expressed in transfected cells; host or cells: Chinese Hamster Ovary (CHO)
Nature of the series: cell-based. The note with it: CHO cells, whole-cell patch clamp; read-out: Potency IC50 (nM) Kv1.2. Background: In patch-clamp work, channel activity is measured electrically.

The next series can be described thus: in vivo. The note with it: male, rat, sc, 70 nmol/kg.
Series [1] concerns Human peripheral blood mononuclear cells (PBMCs). Nature of the series: IL-2 release from anti-CD3 stimulated human PBMCs (Example 4b). Format: cell-based. The note with it: geometric mean, at least 6 replicates, read-out: anti-CD3 PBMC/IL-2 IC50. As to the method: Human peripheral blood mononuclear cells (PBMCs) were used to assess the effects of Kv1.3 blockers on T-cell activation as determined by IL-2 release after stimulation with anti-CD3.
Human PBMCs were obtained from Precision for Medicine (Frederick, Md.). Cells from 5 donors were used. Plate-bound anti-CD3 was used to stimulate bulk T cells in the PBMC preparations. Briefly, 96-well plates were coated with anti-CD3 antibody for app. 16 hours at 5° C., using 50 μl of a 1 μg/ml anti-CD3 solution diluted in PBS. Thereafter the plates were washed twice.
Kv1.3 blockers were subsequently diluted in medium (RPMI 1640 with Glutamax-I containing, 10% v/v Fetal Bovine Serum, 1% v/v penicillin-streptomycin Solution) and added in a volume of 50 μl. The compounds indicated in Table 4b were used at concentrations ranging from […] to 1000 nM (half log dilutions, starting concentrations varying).
Finally, 50.000 PBMCs in the same medium were added to each well in a volume of 50 μl, giving a final volume of 100 μl per well. The plates were incubated for 20-24 hours in a 37° C./5% CO2 incubator. After centrifugation of the plates, 25 μl supernatant was transferred to IL-2 detection plates (MSD Human IL-2 Tissue Culture Kit, cat #K151AHB-2) and IL-2 was measures as described by the manufacturer (Meso Scale Discovery, Rockville, Md., USA).
Results are shown in Table 4b as geometric mean of IC50 values obtained from anti-CD3 stimulated human PBMC assays. All values derive from at least 6 replicates.

A further series deals with Rat whole blood (Rattus norvegicus, UniProt P15384).
Sequence of Rat whole blood (P15384 whole entry): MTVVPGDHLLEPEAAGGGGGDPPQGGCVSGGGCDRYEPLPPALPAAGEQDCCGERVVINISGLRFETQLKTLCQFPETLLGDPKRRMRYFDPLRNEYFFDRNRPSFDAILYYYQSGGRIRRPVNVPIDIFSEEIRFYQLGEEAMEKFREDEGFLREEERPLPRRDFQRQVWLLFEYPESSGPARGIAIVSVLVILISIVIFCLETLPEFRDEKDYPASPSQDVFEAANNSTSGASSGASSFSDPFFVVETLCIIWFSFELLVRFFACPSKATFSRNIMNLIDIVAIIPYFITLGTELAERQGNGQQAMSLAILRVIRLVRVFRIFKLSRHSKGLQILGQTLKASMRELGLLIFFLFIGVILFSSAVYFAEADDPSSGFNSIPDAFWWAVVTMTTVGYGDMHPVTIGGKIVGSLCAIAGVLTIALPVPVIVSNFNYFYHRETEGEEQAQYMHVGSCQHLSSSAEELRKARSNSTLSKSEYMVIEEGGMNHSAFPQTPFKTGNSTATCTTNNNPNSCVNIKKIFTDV
A further series deals with T3, Kv1.6 (Homo sapiens, UniProt P17658).
T3 construct: expressed in transfected cells; host or cells: Chinese Hamster Ovary (CHO)
T3 sequence (P17658 whole entry): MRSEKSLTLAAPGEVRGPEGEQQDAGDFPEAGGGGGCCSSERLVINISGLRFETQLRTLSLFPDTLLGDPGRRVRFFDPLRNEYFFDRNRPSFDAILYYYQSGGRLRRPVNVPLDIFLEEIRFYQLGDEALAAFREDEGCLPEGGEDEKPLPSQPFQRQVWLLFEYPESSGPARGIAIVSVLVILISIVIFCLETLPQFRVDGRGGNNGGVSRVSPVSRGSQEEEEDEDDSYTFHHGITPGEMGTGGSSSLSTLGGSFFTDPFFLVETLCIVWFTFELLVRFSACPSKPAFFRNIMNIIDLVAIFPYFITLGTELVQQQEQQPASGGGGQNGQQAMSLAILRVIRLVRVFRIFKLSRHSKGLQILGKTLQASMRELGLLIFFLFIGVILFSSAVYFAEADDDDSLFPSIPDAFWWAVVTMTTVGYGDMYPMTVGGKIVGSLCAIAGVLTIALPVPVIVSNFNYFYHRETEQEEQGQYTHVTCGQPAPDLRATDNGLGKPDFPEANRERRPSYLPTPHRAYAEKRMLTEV
In words: cell-based.

For series [2], the target named is T4, human Kv1.3 voltage-gated K+ channel (Homo sapiens, UniProt P22001).
T4 construct: host or cells: CHO-DUKX
T4 sequence (P22001 whole entry): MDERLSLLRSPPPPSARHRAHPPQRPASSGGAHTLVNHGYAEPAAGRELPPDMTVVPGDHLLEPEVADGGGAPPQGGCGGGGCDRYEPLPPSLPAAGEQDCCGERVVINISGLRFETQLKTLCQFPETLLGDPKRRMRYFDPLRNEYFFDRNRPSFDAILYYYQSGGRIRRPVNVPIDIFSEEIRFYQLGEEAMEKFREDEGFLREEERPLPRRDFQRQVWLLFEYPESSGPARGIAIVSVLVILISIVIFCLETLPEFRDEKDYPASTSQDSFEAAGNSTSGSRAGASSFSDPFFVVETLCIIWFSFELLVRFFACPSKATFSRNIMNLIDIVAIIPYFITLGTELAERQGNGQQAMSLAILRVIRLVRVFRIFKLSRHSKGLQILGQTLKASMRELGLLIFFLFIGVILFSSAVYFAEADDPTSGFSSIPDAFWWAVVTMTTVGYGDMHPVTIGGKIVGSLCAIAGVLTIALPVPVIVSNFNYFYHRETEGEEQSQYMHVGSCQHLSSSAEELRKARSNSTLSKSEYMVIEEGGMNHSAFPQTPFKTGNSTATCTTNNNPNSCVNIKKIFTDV
In words: cell-based. To be noted: inhibition of thallium flux, CHO-DUKX cells with human Kv1.3; read-out: IC50.

The target of the next series is T5, Kv1.3 (Homo sapiens, UniProt P22001).
T5 construct: expressed in transfected cells; host or cells: Chinese Hamster Ovary (CHO)
T5 sequence (P22001 whole entry): as above
In words: cell-based. The note with it: CHO cells, whole-cell patch clamp; read-out: Potency IC50 (nM) Kv1.3.

The subject of series [3] is delayed-type hypersensitivity (DTH) ear swelling response. The series is classed as in vivo, rat. The note with it: CsA 10 mg/kg per os, +/- SD.

T1 sequence (Q09470 whole entry): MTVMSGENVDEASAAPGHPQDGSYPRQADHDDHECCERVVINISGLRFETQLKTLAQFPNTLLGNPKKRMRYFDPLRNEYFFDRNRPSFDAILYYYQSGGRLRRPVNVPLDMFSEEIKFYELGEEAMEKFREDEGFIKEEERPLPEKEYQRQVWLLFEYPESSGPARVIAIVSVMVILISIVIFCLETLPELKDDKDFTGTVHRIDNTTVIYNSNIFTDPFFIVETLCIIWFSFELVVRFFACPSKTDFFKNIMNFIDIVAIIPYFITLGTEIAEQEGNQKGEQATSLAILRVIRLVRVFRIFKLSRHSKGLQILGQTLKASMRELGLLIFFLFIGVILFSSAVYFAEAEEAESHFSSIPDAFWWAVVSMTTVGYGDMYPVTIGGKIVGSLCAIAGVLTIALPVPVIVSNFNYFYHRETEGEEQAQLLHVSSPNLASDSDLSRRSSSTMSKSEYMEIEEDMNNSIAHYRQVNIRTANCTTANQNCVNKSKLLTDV
T2 sequence (P16389 whole entry): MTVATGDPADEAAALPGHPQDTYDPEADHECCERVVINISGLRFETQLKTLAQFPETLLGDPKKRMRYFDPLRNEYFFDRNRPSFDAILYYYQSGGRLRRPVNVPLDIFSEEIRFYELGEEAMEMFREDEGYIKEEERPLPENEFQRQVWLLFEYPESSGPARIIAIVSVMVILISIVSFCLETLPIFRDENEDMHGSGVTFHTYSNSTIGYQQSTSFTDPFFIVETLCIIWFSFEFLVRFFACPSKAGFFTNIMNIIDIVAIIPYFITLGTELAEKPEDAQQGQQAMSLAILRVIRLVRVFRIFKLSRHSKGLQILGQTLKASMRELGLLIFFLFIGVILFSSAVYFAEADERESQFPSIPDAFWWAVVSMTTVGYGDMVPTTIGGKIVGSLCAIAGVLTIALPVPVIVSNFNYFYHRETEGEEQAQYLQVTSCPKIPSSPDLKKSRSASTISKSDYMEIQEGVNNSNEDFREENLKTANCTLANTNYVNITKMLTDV

As a reminder, the AUC(0-inf) is the area under the concentration-time curve extrapolated to infinity. For orientation: Cmax means the highest concentration seen after dosing. The term half-life denotes how long it takes for the measured level to halve. The low end stands for fast loss, the high end for slow loss. Regarding `CC[C@H](C)[C@@H]1NC(=O)[C@H](C)NC(=O)[C@H](CCCCN)NC(=O)[C@H](CC(C)C)NC(=O)[C@@H]2CSSC[C@@H](C(=O)N[C@@H](Cc3ccc(O)cc3)C(=O)N3CCC[C@H]3C(=O)N[C@@H](CCCNC(=N)N)C(=O)O)NC(=O)[C@H](CCCCN)NC(=O)[C@@H]3CSSC[C@H](NC(=O)[C@H](CCC(=O)O)NC(=O)[C@H](C(C)C)NC(=O)[C@H](CO)NC(=O)[C@H](C)NC(=O)[C@H](CO)NC(=O)[C@@H](NC(=O)[C@H](CCCNC(=N)N)NC(=O)[C@H](CCSC)NC(=O)[C@H](CC(=O)O)NC(=O)[C@H](CCSC)NC(=O)[C@@H](N)CC(N)=O)CSSC[C@H](NC(=O)[C@H](CCCCN)NC(=O)CNC(=O)[C@H](Cc4ccccc4)NC(=O)[C@H]([C@@H](C)CC)NC(=O)[C@H](CO)NC(=O)CNC1=O)C(=O)N[C@@H](CCSC)C(=O)N[C@@H](CC(N)=O)C(=O)N[C@@H](CCCCN)C(=O)N[C@@H](CCCCN)C(=O)N3)C(=O)N[C@@H](CCCCN)C(=O)N[C@@H](CCC(N)=O)C(=O)N[C@@H](CCCCN)C(=O)N2` [Compound 3] (H-NMDMRCSASVECKQKCLKAIGSIFGKCMNKKCKCYPR-OH; disulfide 6-27, 12-32, 16-34), the IC50 was above 3000 nM on Kv1.1 (CHO cells, whole-cell patch clamp, read-out: Potency IC50 (nM) Kv1.1); 409 nM at Kv1.2; 0.06 nM in series [1]; at most 1 nM against Rat whole blood; above 3000 nM at Kv1.6 (CHO cells, whole-cell patch clamp, read-out: Potency IC50 (nM) Kv1.6); 0.3 nM in [2]. The IC50 on Kv1.3 came to 0.27 nM. In addition, the “Selectivity Kv1.1/Kv1.3” value at Kv1.1 (ratio IC50[Kv1.1]/IC50[Kv1.3]) is recorded as above 11300. For the same compound, in “in vivo”, the total exposure AUC(0-inf) turned out to be 0.0839 µM·h. Further, the peak level in “in vivo” (Cmax) was 36.9 nM. The half-life in “in vivo” was 59.4 min. Also, the “Selectivity Kv1.6/Kv1.3” value on Kv1.6 (ratio IC50[Kv1.6]/IC50[Kv1.3]) is above 11300. The “% inhibition of ear thickness (AUC of Δ ear thickness 0-48 hours)” value in series [3] (Exp #1, Kv1.3 blocker 70 nmol/kg SC 24 hrs prior to KLH challenge) is listed as 38.8 (+/−9.7) %; in series [3] (Exp #2, Kv1.3 blocker 70 nmol/kg SC 24 hrs prior to KLH challenge), 25.0 (+/−12.5) %; in [3] (Exp #3, Kv1.3 blocker 50 nmol/kg SC 24 hrs prior to KLH challenge), 37.3 (+/−13.8) %.
